Tested on: patients with fasting triglyceride levels >200 mg/dl and <500 mg/dl despite statin therapy
Assay: 12-week study: red blood cell fatty acids (EPA concentration, FADI ratios) by gas chromatography/flame ionization detection
Assay type: in vivo, human
Details: 4 g/day, placebo-adjusted, 12 weeks
Experimental: A multi-center, placebo-controlled, randomized, double-blind, 12-week study was performed to evaluate the efficacy and safety of >96% E-EPA in patients with fasting triglyceride levels >200 mg/dl and <500 mg/dl despite statin therapy (the mean of two qualifying entry values needed to be >185 mg/dl and at least one of the values needed to be >200 mg/dl). The primary objective of the study was to determine the efficacy of >96% E-EPA 2 g daily and 4 g daily, compared to placebo, in lowering fasting TG levels in patients with high risk for cardiovascular disease and with fasting TG levels 200 mg/dl and <500 mg/dl, despite treatment to LDL-C goal on statin therapy. The secondary objectives of this study were the following: • 1. To determine the safety and tolerability of >96% E-EPA 2 g daily and 4 g daily; • 2. To determine the effect of >96% E-EPA on lipid and apolipoprotein profiles including total cholesterol (TC), non-high-density lipoprotein cholesterol (non-HDL-C), low density lipoprotein cholesterol (LDL-C), high density lipoprotein cholesterol (HDL-C), and […]; • 3. To determine the effect of >96% E-EPA on lipoprotein associated phospholipase A2 (Lp-PLA2) from baseline to week 12; • 4. To determine the effect of >96% E-EPA on low-density lipoprotein (LDL) particle number and size; • 5. […]

## CC/C=C\C/C=C\C/C=C\C/C=C\C/C=C\CCCC(=O)OCC [AMR101, ethyl eicosapentaenoate]
  FADI-16 (Palmitoleic acid/Palmitic acid, C16:1/C16:0), % Change, RBCs: −15.7%
  FADI-18 (Oleic acid/Stearic Acid, C18:1/C18:0), % Change, RBCs: −3.1%

— patent publication US11285127B2, “Compositions and methods for lowering triglycerides without raising LDL-C levels in a subject on concomitant statin therapy” (Amarin Pharmaceuticals Ireland Limited, priority 2013, dated 2022)
